{
  "source": "patent US5563277A",
  "about": "“Process for preparing benzyl-substituted rhodanine derivatives” (Eli Lilly and Company, priority 1994, dated 1996)",
  "data": [
    {"tested_on": "Acetic Acid Induced Colitis", "assay": "Inhibition of Acetic Acid Induced Colitis", "type": "in vivo, Male Sprague-Dawley rats", "conditions": "rat; 30 mg/kg oral, 2 h before 2 ml of 2.5% acetic acid intracolonic enema, second dose 6 h after enema; colon lesions scored 0-4 twenty four hours later vs vehicle", "experimental": "As noted above, the present invention provides a method of treating inflammatory bowel disease in mammals.\nMale Sprague-Dawley rats from Charles River Laboratories, Portage, Mich. (weight approximately 250 g) were dosed orally with test compound (30 mg/kg) or vehicle (control). Two hours after dosing, each animal received 2 ml of a 2.5% acetic acid intracolonic enema via a cannula, the tip of which was placed 8 cm above the anal verge. This concentration of acetic acid produced a severe inflammatory response in the colon characterized by rectal bleeding, diarrhea, epithelial erosions and destructions of crypts and gland cells. Six hours from the enema the test animals were then given a second dose of test compound or vehicle. Twenty four hours later the test and control animals were killed and the distal ten centimeters of the colon were removed and opened longitudinally. The tissue lesions contained within the removed, opened, section of colon were scored by three independent blinded observers on a scale of 0 to 4 (zero=normal, four=worst inflammation). In each test group 5-7 rats were used. Test results from animals given test compound dissolved in vehicle were compared with test results from animals given vehicle alone in order to determine the percentage of lesion inhibition attributable to the test compound.", "units": {"% Inhibition (percentage of lesion inhibition)": "%"}, "values": [
      {"compound": "C[C@H](c1ccccc1)N1CS[C@H](Cc2cc(C(C)(C)C)c(O)c(C(C)(C)C)c2)C1=O", "note": "[(3αR,5R)-5-[[3,5-bis(1,1-dimethylethyl)-4-hydroxyphenyl]methyl]-3-(1-phenylethyl)-4-thiazolidinone]", "% Inhibition (percentage of lesion inhibition)": 30},
      {"compound": "C[C@H](c1ccccc1)N1CS[C@@H](Cc2cc(C(C)(C)C)c(O)c(C(C)(C)C)c2)C1=O", "note": "[(3αR, 5S)-5-[[3,5-bis (1,1-dimethylethyl)-4-hydroxyphenyl]methyl]-3-(1-phenylethyl)-4-thiazolidinone]", "% Inhibition (percentage of lesion inhibition)": 36},
      {"compound": "COC(=O)c1ccc(CN2CSC(Cc3cc(C(C)(C)C)c(O)c(C(C)(C)C)c3)C2=O)cc1", "note": "(stereo not shown) [5-[[3,5-bis(1,1-dimethylethyl)-4-hydroxyphenyl]methyl]-3-(carbomethoxybenzyl)-4-thiazolidinone]", "% Inhibition (percentage of lesion inhibition)": 11},
      {"compound": "CC(C)(C)c1cc(CC(S)C(=O)O)cc(C(C)(C)C)c1O", "note": "(stereo not shown) [3-[3,5-bis(1,1-dimethylethyl)-4-hydroxyphenyl]-2-mercaptopropanoic acid]", "% Inhibition (percentage of lesion inhibition)": 18}
    ]}
  ]
}
